Measurements from patent US20150344540A1, “NOVEL GLP-1 RECEPTOR AGONISTS WITH CHOLESTEROL EFFLUX ACTIVITY” (NOVO NORDISK A/S, priority 2012, published 2015).
Where a SMILES comes first, the peptide text is derived from it. [ ]: non-standard residue; d: D form. Aib = CC(C)(N)C(=O)O

Test system: Mouse monocyte/macrophage cell line, RAW 264.7
Assay: Cholesterol efflux assay (3H-cholesterol, macrophage cell line)
Assay type: cell-based
Details: RAW 264.7, 4 hrs incubation, 0.1% human serum albumin; for 4 h Cholesterol Efflux Emax: ABCA1-mediated efflux

Structure (SMILES) | 4 h Cholesterol Efflux Emax [%] | EC50 (read-out: 4 h Cholesterol Efflux EC50, ABCA1-mediated efflux (CPT-cAMP induced minus non-induced)) [nM]
CC[C@H](C)[C@H](NC(=O)[C@H](Cc1ccccc1)NC(=O)[C@H](CCC(=O)O)NC(=O)[C@H](CCCCN)NC(=O)[C@@H](NC(=O)[C@H](C)NC(=O)[C@H](CCC(=O)O)NC(=O)CNC(=O)[C@H](CCC(=O)O)NC(=O)[C@H](CC(C)C)NC(=O)[C@H](Cc1ccc(O)cc1)NC(=O)[C@H](CO)NC(=O)[C@H](CO)NC(=O)[C@@H](NC(=O)[C@H](CC(=O)O)NC(=O)[C@H](CO)NC(=O)[C@@H](NC(=O)[C@H](Cc1ccccc1)NC(=O)[C@@H](NC(=O)CNC(=O)[C@H](CCC(=O)O)NC(=O)C(C)(C)NC(=O)[C@@H](N)Cc1c[nH]cn1)[C@@H](C)O)[C@@H](C)O)C(C)C)C(C)C)C(=O)N[C@@H](C)C(=O)N[C@@H](Cc1c[nH]c2ccccc12)C(=O)N[C@@H](CC(C)C)C(=O)N[C@H](C(=O)N[C@@H](CCC(=O)O)C(=O)N[C@@H](CCCCN)C(=O)NC(C)(C)C(=O)N[C@@H](CC(C)C)C(=O)N[C@@H](CO)C(=O)N[C@@H](Cc1ccccc1)C(=O)N[C@@H](CC(C)C)C(N)=O)C(C)C [Compound 88] (H-H[Aib]EGTFTSDVSSYLEGEAVKEFIAWLVEK[Aib]LSFL-NH2) | 69 | 
CC[C@H](C)[C@H](NC(=O)[C@H](Cc1ccccc1)NC(=O)[C@H](CCC(N)=O)NC(=O)[C@H](CCCCN)NC(=O)[C@@H](NC(=O)[C@H](C)NC(=O)[C@H](CCC(N)=O)NC(=O)CNC(=O)[C@H](CCC(=O)O)NC(=O)[C@H](CC(C)C)NC(=O)[C@H](Cc1ccc(O)cc1)NC(=O)[C@H](CO)NC(=O)[C@H](CO)NC(=O)[C@@H](NC(=O)[C@H](CC(=O)O)NC(=O)[C@H](CO)NC(=O)[C@@H](NC(=O)[C@H](Cc1ccccc1)NC(=O)[C@@H](NC(=O)CNC(=O)[C@H](CCC(=O)O)NC(=O)C(C)(C)NC(=O)[C@@H](N)Cc1c[nH]cn1)[C@@H](C)O)[C@@H](C)O)C(C)C)C(C)C)C(=O)N[C@@H](C)C(=O)N[C@@H](Cc1c[nH]c2ccccc12)C(=O)N[C@@H](CC(C)C)C(=O)N[C@H](C(=O)N[C@@H](CC(N)=O)C(=O)N[C@@H](CCCCN)C(=O)NC(C)(C)C(=O)N[C@@H](C)C(=O)N[C@@H](CCC(=O)O)C(=O)N[C@@H](Cc1ccccc1)C(=O)N[C@@H](CC(C)C)C(N)=O)C(C)C [Compound 74] (H-H[Aib]EGTFTSDVSSYLEGQAVKQFIAWLVNK[Aib]AEFL-NH2) | 91 | 
CC[C@H](C)[C@H](NC(=O)[C@H](Cc1ccccc1)NC(=O)[C@H](CCC(=O)O)NC(=O)[C@H](CCCCN)NC(=O)[C@@H](NC(=O)[C@H](C)NC(=O)[C@H](CCC(=O)O)NC(=O)CNC(=O)[C@H](CCC(=O)O)NC(=O)[C@H](CC(C)C)NC(=O)[C@H](Cc1ccc(O)cc1)NC(=O)[C@H](CO)NC(=O)[C@H](CO)NC(=O)[C@@H](NC(=O)[C@H](CC(=O)O)NC(=O)[C@H](CO)NC(=O)[C@@H](NC(=O)[C@H](Cc1ccccc1)NC(=O)[C@@H](NC(=O)CNC(=O)[C@H](CCC(=O)O)NC(=O)C(C)(C)NC(=O)[C@@H](N)Cc1c[nH]cn1)[C@@H](C)O)[C@@H](C)O)C(C)C)C(C)C)C(=O)N[C@@H](C)C(=O)N[C@@H](Cc1c[nH]c2ccccc12)C(=O)N[C@@H](CC(C)C)C(=O)N[C@H](C(=O)N[C@@H](CCC(=O)O)C(=O)N[C@@H](CCCCN)C(=O)NC(C)(C)C(=O)N[C@@H](CCCCN)C(=O)N[C@@H](CCC(=O)O)C(=O)N[C@@H](Cc1ccccc1)C(=O)N[C@@H](CC(C)C)C(=O)N[C@@H](CCC(=O)O)C(=O)N[C@@H](CCCCN)C(=O)N[C@H](C(=O)N[C@@H](CCCCN)C(=O)N[C@@H](CCC(=O)O)C(=O)N[C@@H](Cc1ccccc1)C(=O)O)C(C)C)C(C)C [Compound 97] | 125 | 410
